Patent publication US20220275389A1, “MODIFIED EXOPOLYSACCHARIDE RECEPTORS FOR RECOGNIZING AND STRUCTURING MICROBIOTA” (Aarhus Universitet, priority 2019, published 2022)
Entries after “also recorded” stand apart in the source; their conditions may differ. Read-outs that look alike come from different tables or passages of the source.

Assays:
L. japonicus EPR3a ED = experiment: Microscale thermophoresis (MST) binding to EPR3a ED; conditions: for binding of EPR3a ED to polysaccharide (detectable or not): FIGS. 11I-11J
Procedure: Purified EPR3 was fluorescently labeled using the Monolith NT.115TM Protein Labelling Kit Blue NHS (NanoTemper Technologies) according to the manufacturer's instructions. All experiments were performed in MST buffer (50 mM K2PO4, pH 7.8, 500 mM NaCl, and 0.05% Tween-20) with a constant concentration of EPR3 ED (100 nM and ˜50% labelling efficiency) and dilution series of the various ligands. The samples were incubated for 30 minutes at room temperature before loaded into standard capillaries for measurements on a Monolith NT.115 TM instrument (NanoTemper Technologies) at 25° C., with blue LED power of 50% and MST power of 20%. To accurately measure the experimental errors and ensure data reproducibility, all MST binding experiments were performed with at least three independently purified samples of EPR3. At the highest ligand concentrations, weak ligand binding to the fluorescent label itself was occasionally observed. To accurately account for this unspecific binding ligand binding to 50 nM free fluorescent label was measured and this small background was subtracted contribution from all the respective MST binding measurements. The competition experiments were performed by pre-incubating labeled EPR3 ED with 250 μM R7A EPS or R7A exoU EPS and assessing the binding of EPR3 ED to titrated R7A exoU EPS or R7A EPS, respectively. Binding data were processed with the GraphPad Prism 7 software (GraphPad Software, Inc.) and the equilibrium dissociation constants (Kd) values (95% confidence interval) were calculated using the sigmoidal dose-response equations.
The EPR3a ED was expressed in insect cells, and the protein was purified as described in Example 1 (FIG. 11D).
MST experiments were performed as described in Example 2 (FIG. 11C, FIGS. 11E-11J).

[1] = test system: Lotus japonicus EPR3a ectodomain (EPR3a ED), wild type, EPR3a SEQ ID NO: 62; experiment: Microscale thermophoresis (MST) binding of polysaccharides to EPR3a ectodomain (ED); conditions: for Kd: FIGS. 11E-11H, preparation of FIG. 11D
Procedure: Low molecular mass (LMM) exopolysaccharides (EPS) were isolated from various rhizobial strains including Mesorhizobium loti strain R7A ndvB6, R. leguminosarum bv. viciae 3855 (this work) and Sinorhizobium meliloti B578 (Griffins, J. S. et al. Mol. Microbiol. 2008 69: 479-490) that were deficient in cyclic glucan production were grown on minimal media with glucose as the sole source of carbon. The LMM EPS was isolated from the bacterial culture supernatants and purified via sequential precipitation with 6 volumes of 99.8% EtOH (v/v), followed by 9 volumes EtOH (v/v) and purified by size exclusion chromatography (SEC) as previously described (Muszyński, A. et al. J. Biol. Chem. 2016 291: 20946-20961). O-acetyl groups were removed chemically by mild overnight treatment of native EPS samples with 12.5% NH4OH (Muszyński, A. et al. J. Biol. Chem. 2016 291: 20946-20961). Native and de-O-acetylated samples were verified via matrix-assisted laser desorption/ionization time of flight mass spectrometry (MALDI-TOF MS) analysis on Applied Biosystems AB SCIEX TOF/TOF 5800 system in either negative or positive reflector ionization modes. The glycosyl composition and linkage was determined as previously described (Muszyński, A. et al. J. Biol. Chem. 2016 291: 20946-20961).
Purified EPR3 was fluorescently labeled using the Monolith NT.115TM Protein Labelling Kit Blue NHS (NanoTemper Technologies) according to the manufacturer's instructions. […] To accurately account for this unspecific binding ligand binding to 50 nM free fluorescent label was measured and this small background was subtracted contribution from all the respective MST binding measurements. […] Binding data were processed with the GraphPad Prism 7 software (GraphPad Software, Inc.) and the equilibrium dissociation constants (Kd) values (95% confidence interval) were calculated using the sigmoidal dose-response equations. […]

[2] = target: Lotus japonicus EPR3 ectodomain (EPR3 ED, residues 33-232), wild type, EPR3 SEQ ID NO: 61 (Lotus japonicus, UniProt D3KU53); experiment: Microscale thermophoresis (MST) binding of EPS ligands to EPR3 ectodomain (ED); conditions: 100 nM EPR3 ED, pH 7.8, 25° C.; for Kd: 95% confidence interval, read-out: equilibrium dissociation constant (Kd)
Sequence of Lotus japonicus EPR3 ectodomain (EPR3 ED, residues 33-232), wild type, EPR3 SEQ ID NO: 61 (D3KU53 entry or part of it): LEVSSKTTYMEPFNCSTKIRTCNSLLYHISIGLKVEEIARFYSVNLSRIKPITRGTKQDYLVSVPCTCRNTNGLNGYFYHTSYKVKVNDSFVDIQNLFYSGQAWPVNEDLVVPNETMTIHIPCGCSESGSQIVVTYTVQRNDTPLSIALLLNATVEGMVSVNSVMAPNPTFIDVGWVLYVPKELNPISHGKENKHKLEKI
Procedure: Expression and purification of L. japonicus ecotype Gifu EPR3 ectodomain (ED) was performed as described previously (Kawaharada, Y et al. Nature 2015 523: 308-312). In brief, DNA encoding residues 33-232 of EPR3 (corresponding to the EPR3 ED) containing an N-terminal gp67 secretion signal and a C-terminal 6×His-tag was codon-optimized for insect cell expression (GenScript) and inserted into the pOET2 vector (Oxford Expression Technologies). Baculoviruses, used for infecting Sf9 cells cultured in suspension in serum-free HyClone SFX-Insect medium (FisherScientific), were obtained using the flashBAC GOLD system (OET). Five days post inoculation, the media was dialyzed against buffer containing 50 mM Tris-HCl pH 8.0 and 200 mM NaCl before centrifugation and loaded on a HisTrap excel affinity column (GE Healthcare). The eluted protein was dialyzed against buffer containing 50 mM Tris-HCl pH 8.0 and 200 mM NaCl, and further purified on a HisTrap HP affinity column (GE Healthcare). For crystallization, the EPR3 ED was treated with PNGase F (1:15 w/w ratio) for 1 hour at room temperature and overnight at 4° C. to remove N-linked oligosaccharides. EPR3 ED was then purified on a Mono S 5/50 column (GE Healthcare) and eluted with a linear gradient of 50-300 mM NaCl and 50 mM Tris-HCl, pH 7.0. Both glycosylated and de-glycosylated EPR3 ED were finally purified on a Superdex 75 10/300 column (GE Healthcare) in gel filtration buffer containing 50 mM KH2-PO4 pH 7.8 and 200 mM NaCl (for microscale thermophoresis binding experiments) or 50 mM Tris-HCl pH 8.0 and 200 mM NaCl (for crystallization).
Low molecular mass (LMM) exopolysaccharides (EPS) were isolated from various rhizobial strains including Mesorhizobium loti strain R7A ndvB6, R. leguminosarum bv. viciae 3855 (this work) and Sinorhizobium meliloti B578 (Griffins, J. S. et al. Mol. Microbiol. 2008 69: 479-490) that were deficient in cyclic glucan production were grown on minimal media with glucose as the sole source of carbon. The LMM EPS was isolated from the bacterial culture supernatants and purified via sequential precipitation with 6 volumes of 99.8% EtOH (v/v), followed by 9 volumes EtOH (v/v) and purified by size exclusion chromatography (SEC) as previously described (Muszyński, A. et al. J. Biol. Chem. 2016 291: 20946-20961). O-acetyl groups were removed chemically by mild overnight treatment of native EPS samples with 12.5% NH4OH (Muszyński, A. et al. J. Biol. Chem. 2016 291: 20946-20961). […] The glycosyl composition and linkage was determined as previously described (Muszyński, A. et al. J. Biol. Chem. 2016 291: 20946-20961). […]

[3] = FIGS. 11E-11H, n=3, EPR3a ED preparation of FIG. 11D (figure legend), read-out: equilibrium dissociation constant (Kd)

Work on S. meliloti EPS [listing 1 of 2 here] yielded a Kd (L. japonicus EPR3a ED; [3]) of 937 ± 389 µM.

In the case of `CC(=O)N[C@H]1[C@H](O[C@H]2[C@H](O)[C@@H](NC(C)=O)C(O)O[C@@H]2CO)O[C@H](CO)[C@@H](O[C@@H]2O[C@H](CO)[C@@H](O[C@@H]3O[C@H](CO)[C@@H](O)[C@H](O)[C@H]3NC(C)=O)[C@H](O)[C@H]2NC(C)=O)[C@@H]1O` (stereo partly shown) [chitotetraose], the “binding of EPR3a ED to polysaccharide (detectable or not)” value (“binding … (detectable or not)” for short) (L. japonicus EPR3a ED; n=3) is reported as “absence of binding”, the “binding … (detectable or not)” value (L. japonicus EPR3a ED; n=3, listed as chitin) is reported as “did not bind” and the binding ([1]; FIG. 11I, n=3) is reported as “did not bind; also recorded: absence of binding”.

Compound “(2,3/3-OAc)β-D-RibfA-(1→4)-a-D-GlcpA-(1→4)-β-D-Glcp-(1→6)-(3OAc)β-D-Glcp-(1→6)-(2OAc)β-D-Glcp-(1→4)-(2/3OAc)β-D-Glcp-(1→4)-β-D-Glcp-(1→3)-β-D-Galp [R7A EPS] [listing 1 of 2 here]” has a Kd [2] of 38.1 ± 7.5 µM.

For `CC(=O)N[C@H]1[C@H](O[C@H]2[C@H](O)[C@@H](NC(C)=O)[C@H](O[C@H]3[C@H](O)[C@@H](NC(C)=O)C(O)O[C@@H]3CO)O[C@@H]2CO)O[C@H](CO)[C@@H](O[C@@H]2O[C@H](CO)[C@@H](O[C@@H]3O[C@H](CO)[C@@H](O[C@@H]4O[C@H](CO)[C@@H](O)[C@H](O)[C@H]4NC(C)=O)[C@H](O)[C@H]3NC(C)=O)[C@H](O)[C@H]2NC(C)=O)[C@@H]1O` (stereo partly shown) [C06, Chitohexose], the binding [2] was “unable to bind”.

S. meliloti EPS [listing 2 of 2 here] gave a Kd [2] of 222 ± 102 µM.

For `O=C(O)[C@H]1O[C@@H](O[C@H]2[C@H](O)[C@@H](O)[C@@H](O[C@H]3[C@H](O)[C@@H](O)[C@H](OC[C@H]4O[C@@H](OC[C@H]5O[C@@H](O[C@H]6[C@H](O)[C@@H](O)[C@H](O[C@H]7[C@H](O)[C@@H](O)[C@H](O[C@H]8[C@@H](O)[C@@H](CO)OC(O)[C@@H]8O)O[C@@H]7CO)O[C@@H]6CO)[C@H](O)[C@@H](O)[C@@H]5O)[C@H](O)[C@@H](O)[C@@H]4O)O[C@@H]3CO)O[C@@H]2C(=O)O)[C@H](O)[C@@H]1O` (stereo partly shown) [R7A deOAc-EPS], the Kd [2] was 31.3 ± 11.7 µM, the Kd ([1]; n=3, figure legend, read-out: equilibrium dissociation constant (Kd)) was 57.2 ± 15.6 µM and the Kd ([1]; read-out: equilibrium dissociation constant of Kd) was 57.2 ± 15.6 µM.

Work on “(2,3/3-OAc)β-D-RibfA-(1→4)-a-D-GlcpA-(1→4)-β-D-Glcp-(1→6)-(3OAc)β-D-Glcp-(1→6)-(2OAc)β-D-Glcp-(1→4)-(2/3OAc)β-D-Glcp-(1→4)-β-D-Glcp-(1→3)-β-D-Galp [R7A EPS] [listing 2 of 2 here]” yielded a Kd (L. japonicus EPR3a ED; FIG. 11C, R^2=0.98, read-out: equilibrium dissociation constant (Kd)) of 25.6 µM and a Kd (L. japonicus EPR3a ED; [3]) of 44.4 ± 11.2 µM.

For maltodextrin, the “binding … (detectable or not)” value (L. japonicus EPR3a ED; n=3) was “did not bind; also recorded: absence of binding”.
